# Paper PMC12390925, “Metabolomics analysis of SNAT2-deficient cells: Implications for the discovery of selective small-molecule inhibitors of an amino acid transporter” (The Journal of Biological Chemistry, 2025)
# T1: sodium-coupled neutral amino acid transporter 2 (SNAT2/SLC38A2) (Homo sapiens, UniProt Q96QD8)
# T1 construct: dox-inducible sgRNA-resistant human SLC38A2 cDNA in Slc38a2-KO mouse HY15549 cells
# T1 sequence (Q96QD8 1-506): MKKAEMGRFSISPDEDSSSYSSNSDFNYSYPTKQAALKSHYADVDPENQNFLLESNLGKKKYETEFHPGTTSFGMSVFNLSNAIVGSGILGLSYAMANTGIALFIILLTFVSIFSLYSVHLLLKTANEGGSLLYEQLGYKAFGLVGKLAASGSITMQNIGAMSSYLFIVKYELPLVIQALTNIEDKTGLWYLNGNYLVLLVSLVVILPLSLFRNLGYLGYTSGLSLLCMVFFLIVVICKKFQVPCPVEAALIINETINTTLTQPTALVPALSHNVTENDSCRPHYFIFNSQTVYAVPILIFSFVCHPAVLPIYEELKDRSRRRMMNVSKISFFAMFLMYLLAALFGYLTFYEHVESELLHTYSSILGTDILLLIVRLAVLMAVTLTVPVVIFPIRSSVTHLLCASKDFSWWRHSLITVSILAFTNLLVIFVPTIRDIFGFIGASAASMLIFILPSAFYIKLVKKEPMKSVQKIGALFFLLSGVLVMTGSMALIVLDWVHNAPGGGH
# How the values were obtained:
# [1] = molecular target: T1, sodium-coupled neutral amino acid transporter 2 (SNAT2/SLC38A2); assay: GC-MS cell uptake assay, SNAT2-expressing vs SNAT2-KO cells (KM); assay type: cell-based
# [2] = molecular target: T1, sodium-coupled neutral amino acid transporter 2 (SNAT2/SLC38A2); assay: inhibition of SNAT2-dependent MeAIB uptake in cells (GC-MS); assay type: cell-based
# [3] = substrate: CNC(C)(C)C(=O)O; assay: GC-MS cell uptake assay, SNAT1-overexpressing vs empty vector cells (KM); assay type: cell-based, Homo sapiens
molecule,measurement,setting,value
CNC(C)(C)C(=O)O [MeAIB],Km,[1],~300 µM
C[C@H](N)C(=O)O [L-alanine],IC50,[2],1900 µM
"SNAT1 (Homo sapiens) (protein, CMV-driven human SLC38A1 cDNA stably expressed in HY15549 iSNAT2 cells) MMHFKSGLELTELQNMTVPEDDNISNDSNDFTEVENGQINSKFISDRESRRSLTNSHLEKKKCDEYIPGTTSLGMSVFNLSNAIMGSGILGLAFALANTGILLFLVLLTSVTLLSIYSINLLLICSKETGCMVYEKLGEQVFGTTGKFVIFGATSLQNTGAMLSYLFIVKNELPSAIKFLMGKEETFSAWYVDGRVLVVIVTFGIILPLCLLKNLGYLGYTSGFSLSCMVFFLIVVIYKKFQIPCIVPELNSTISANSTNADTCTPKYVTFNSKTVYALPTIAFAFVCHPSVLPIYSELKDRSQKKMQMVSNISFFAMFVMYFLTAIFGYLTFYDNVQSDLLHKYQSKDDILILTVRLAVIVAVILTVPVLFFTVRSSLFELAKKTKFNLCRHTVVTCILLVVINLLVIFIPSMKDIFGVVGVTSANMLIFILPSSLYLKITDQDGDKGTQRIWAALFLGLGVLFSLVSIPLVIYDWACSSSSDEGH",Km,[3],2900 µM
